The assay relates to Detroit 562 cells. Briefly: In vitro killing assay of ADC on Detroit562 cells (CCK-8). Type of assay: cell-based. Conditions: Detroit 562, 5 days, 3-fold dilutions from 300 nM, CCK-8, FIG. 19. On the procedure:
Experimental Example 4: In Vitro Killing Assay of ADC on Detroit562 Cells
Detroit 562 cells (purchased from Nan Jing cobioer biosciences Co., Ltd.) were cultured so that a cell density reached to 80%. The cells were collected, plated in a 96-well plate, and the cell density was adjusted to 2-5×10^4/ml. Each well was plated with 100 μL of cells, and the ADC molecules were serially diluted 3 times with an initial concentration of 300 nM. After the dilution was completed, the ADC molecules were added to the cell culture medium and cultured for 5 days, during which the apoptosis of the cells was observed regularly. After 5 days, 15 μL of the CCK-8 kit stock solution was added to the 96-well plate and reacted in an incubator of 37° C. for 0.5-2 h. An absorbance at 450 nm was measured, and cell survival curves were drawn based on OD (optical density) readings and ADC dilution gradients.
Human IgG-DXD prepared in Comparative Example 4, Human IgG-LP1 prepared in Comparative Example 5, Human IgG-LP2 prepared in Comparative Example 7, Hu1H2-2-LP1 prepared in Example 6, Hu1H2-2-LP2 prepared in Example 8, and Hu1H2-2-DXD prepared in Comparative Example 9 were selected as ADC molecules. Wherein Human IgG was used as the isotype control of Hu1H2-2 antibody, and DXD was used as positive drug.

For `CC[C@@]1(O)C(=O)OCc2c1cc1n(c2=O)Cc2c-1nc1cc(F)c(C)c3c1c2[C@@H](NC(=O)OCc1ccc(NC(=O)CNC(=O)[C@H](Cc2ccccc2)NC(=O)CNC(=O)CNC(=O)CCCCCN2C(=O)C=CC2=O)cc1CN(C)C(=O)CN(C)C(=O)CN(C)C(=O)CN(C)C(=O)CN(C)C(=O)CN(C)C(=O)CN(C)C(=O)CN(C)C(=O)CN(C)C(=O)CN(C)C(=O)CN(C)C(C)=O)CC3` [LP-2], the “in vitro killing effect (cell survival curve)” value was “more excellent killing effects in vitro on Detriot562”.

For the origin of these results see patent publication US20260166169A1, “ANTIBODY-DRUG CONJUGATE, PREPARATION METHOD AND USE THEREOF” (priority 2023, published 2026).
